Data taken from ChEMBL document CHEMBL4888484, “Replenishing the malaria drug discovery pipeline: Screening and hit evaluation of the MMV Hit Generation Library 1 (HGL1) against asexual blood stage Plasmodium falciparum ,using a nano luciferase reporter read-out” (2022).
pIC50: −log10 of the molar value.

What was measured:
[1] = tested on: Plasmodium falciparum; test: Hit confirmation in dose-response curve in NF54 nanoGlo assay, at 12h; assay type: functional, organism-based, Erythrocyte; design: timepoint 12 hour; details: Plasmodium falciparum, NF54, Erythrocyte, 12 h
[2] = tested on: Plasmodium falciparum; test: Hit confirmation in dose-response curve in Dd2 pLDH assay, at 72h; assay type: functional, organism-based; design: timepoint 72 hour; details: Dd2, Erythrocyte
[3] = tested on: Plasmodium falciparum; test: Hit confirmation in dose-response curve in NF54 pLDH assay, at 72h; assay type: functional, organism-based; design: timepoint 72 hour; details: NF54, Erythrocyte
[4] = Re-testing in dose-response curve in HepG2 cytotoxicity assay, at 72h; assay type: toxicity, cell-based; design: timepoint 72 hour; details: human, HepG2 cells
[5] = tested on: Plasmodium falciparum; test: Re-testing in dose-response curve in 3D7 pLDH assay, at 72h; assay type: functional, organism-based; design: timepoint 72 hour; details: 3D7, Erythrocyte
[6] = Hit confirmation in dose-response curve in HepG2 cytotoxicity assay, at 72h; assay type: toxicity, cell-based; design: timepoint 72 hour; details: human, HepG2 cells
[7] = tested on: Plasmodium falciparum; test: Hit confirmation in dose-response curve in NF54 nanoGlo assay, at 72h; assay type: functional, organism-based, Erythrocyte; design: timepoint 72 hour; details: Plasmodium falciparum, NF54, Erythrocyte, 72 h

Row | SMILES | pIC50 [1] | pIC50 [2] | pIC50 [3] | IC50 at 72 h [4] | pIC50 [5] | IC50 at 72 h [6] | pIC50 [7]
1 | Cc1cnccc1NCCNCc1cccc(O)c1Cl | < 5.00 | 5.91 | 5.83 | > 25 µM | 6.03 | > 10 µM | 5.95
2 | Cc1nn(-c2nc3ccccc3[nH]2)c(O)c1CCC(C)C | 5.05 | 5.43 | 5.07 | – | – | > 10 µM | 5.57
3 | Clc1ccc(COc2ccc(Cl)cc2CNCCCn2ccnc2)c(Cl)c1 | 5.52 | 5.86 | 5.90 | 6.11 µM | 5.99 | > 10 µM | 5.85
4 | Cc1cc(NC(=O)C(=O)NC2CC(C)CC(C)(C)C2)n(-c2nc3c(c(=O)[nH]2)CCC3)n1 (stereo unspecified) | < 5.00 | 5.75 | 5.68 | 0.118 µM | 6.41 | > 10 µM | 5.94
5 | NC(=O)c1ccccc1NC(=O)C1CCN(c2cc(C3CC3)ncn2)CC1 | 5.62 | 5.20 | 5.08 | – | – | > 10 µM | 5.69
6 | COc1ccc(C(=O)N2c3ncnn3C(c3ccccc3)CC2c2ccc(C)cc2)cc1OC (stereo unspecified) | < 5.00 | 6.13 | 5.93 | > 25 µM | 6.93 | > 10 µM | 6.34
7 | O=C(Nc1cnc(-n2ccnc2)nc1)C(c1ccccc1)c1ccccc1 | 5.10 | 5.28 | 5.40 | – | – | > 10 µM | 5.61
8 | Cc1ccnc(Nc2ccc(N3CCNCC3)nn2)c1 | 5.55 | 5.77 | 5.89 | > 25 µM | 5.52 | > 10 µM | 5.79
9 | O=C(N[C@@H](Cn1nccn1)c1ccccc1)c1cc(Br)ccc1Cl | < 5.00 | 5.53 | 5.56 | – | – | > 10 µM | 5.76
10 | Cc1cnccc1NCCNC1CCN(c2ccc3c(c2)CCC3)CC1 | 5.15 | 6.19 | 5.99 | 5.42 µM | 6.49 | 8.13 µM | 5.34
11 | Nc1ncc(C(=O)N2CCC3(CCCCCC3)C2)s1 | 6.00 | 5.95 | 6.06 | > 25 µM | 6.24 | > 10 µM | 6.08
12 | O=C(c1cscn1)N1CC[C@H](Oc2cccc(Cl)c2)C1 | < 5.00 | 5.71 | 5.16 | > 25 µM | 6.24 | > 10 µM | 5.40
13 | Cc1c(C)c2ccc(NC(=O)c3cc4ccccc4o3)cc2[nH]c1=O | 5.46 | 5.49 | 5.09 | – | – | > 10 µM | 5.78
14 | CC(C)N1C(=O)NC(=O)C2(Cc3ccccc3N3CCN(Cc4ccccc4)CC32)C1=O (stereo unspecified) | < 5.00 | < 5.00 | < 5.00 | – | – | > 10 µM | 5.40
15 | COc1ccccc1C(=O)NC1=NN2C(=NC(c3ccc(Cl)cc3)=C[C@H]2c2ccc(Cl)cc2)N1 | 5.97 | 5.96 | 5.56 | > 25 µM | 5.31 | > 10 µM | 6.20
16 | CC(C)c1cc(=O)[nH]c(-n2nc(C3CC3)cc2NC(=O)Cc2ccc(Cl)cc2)n1 | < 5.00 | 5.41 | 5.11 | – | – | > 10 µM | 5.72
17 | Cc1noc(C)c1CN1C[C@@H]2Oc3cc(F)ccc3C(=O)N(C)[C@@H]2C1 | 5.80 | 6.00 | 5.99 | > 25 µM | 6.31 | > 10 µM | 6.14
18 | O=C(c1cc2ccccc2[nH]1)N1CCc2sc(Cl)cc2C1 | 5.53 | < 5.00 | < 5.00 | – | – | > 10 µM | 5.11
19 | CC(C)C(NC(=O)COc1ccccc1)C(=O)NCC(c1ccccc1Cl)c1c[nH]c2ccccc12 (stereo unspecified) | 5.47 | 5.11 | 5.04 | – | – | > 10 µM | 5.62
20 | CCn1cc(C#N)c(=O)c2cc(F)c(N3CCN(Cc4ccccc4)CC3)cc21 | < 5.00 | < 5.00 | < 5.00 | – | – | > 10 µM | < 5.00
21 | COc1cccc2c(=O)c3c([nH]c12)CCN(CC(=O)NCc1ccccc1Cl)C3 | < 5.00 | 5.04 | 5.00 | – | – | > 10 µM | 5.01
22 | Nc1c(-c2nc3ccccc3[nH]2)c2nc3ccccc3nc2n1Cc1ccccc1F | < 5.00 | 6.02 | 5.96 | 24.7 µM | 5.68 | > 10 µM | 6.60

Row | SMILES | pIC50 [1] | pIC50 [2] | pIC50 [3] | IC50 at 72 h [4] | pIC50 [5] | IC50 at 72 h [6] | pIC50 [7]
23 | CCC(=O)N(Cc1ccc(-c2ccc(Cl)cc2)o1)[C@H]1CCS(=O)(=O)C1 | 5.47 | 5.53 | 5.29 | – | – | > 10 µM | 5.78
24 | C[C@H](N)c1ccc(Nc2ncc3cc(-c4ccncc4)ccc3n2)cc1 | < 5.00 | 5.92 | 5.57 | 11.4 µM | 5.98 | > 10 µM | 5.96
25 | CCNC(=O)N1CC[C@H](Oc2ccc3ccccc3n2)C1 | < 5.00 | 5.43 | 5.13 | – | – | > 10 µM | 5.57
26 | O=C(CCc1ccc(Cl)c(C(F)(F)F)c1)N1CC[C@H](N2CCc3ccccc3C2)C1 | < 5.00 | 5.08 | 5.25 | – | – | > 10 µM | 5.26
27 | C[C@H]1CCCN(c2nc(-c3ccccn3)nc3ccccc23)C1 | 5.90 | 5.84 | 5.85 | 1.76 µM | 5.77 | > 10 µM | 6.33
28 | Cc1ccc2c(c1)CCCN2C(=O)CN1CC=C(c2cnn(C)c2)CC1 | < 5.00 | 5.76 | 5.42 | > 25 µM | 6.11 | > 10 µM | 5.43
29 | CC(=O)N(C1CCN(Cc2ccccc2)CC1)C1(C(=O)Nc2ccc3[nH]ccc3c2)CCN(C)CC1 | 5.40 | 5.91 | 5.90 | > 25 µM | 5.91 | > 10 µM | 5.78
30 | Cc1ccc(Nc2ccc(N3CCNCC3)nn2)nc1 | 5.51 | 5.76 | 5.50 | > 25 µM | 5.29 | > 10 µM | 5.80
31 | CC(C)CC[C@@H](CCNCCN(C)C)c1ccc(Cl)cc1 | 6.05 | 6.01 | 5.99 | 14.9 µM | 5.49 | > 10 µM | 6.25
32 | CC(C)N(CC(=O)Nc1nccs1)Cc1ccccn1 | < 5.00 | 6.05 | 5.77 | > 24.8 µM | 5.01 | > 10 µM | 6.16
33 | Clc1ccc(Cn2cc(CNCCCn3ccnc3)c3ccccc32)c(Cl)c1 | 5.82 | 5.93 | 6.25 | 3.9 µM | ~6.33 | > 10 µM | 6.13
34 | O=C(Nc1ccccc1Cl)N1CCC(N2CCc3sccc3C2)CC1 | < 5.00 | 5.34 | 5.45 | – | – | > 10 µM | 5.43
35 | COc1ccc([C@@H]2C=C(c3ccc(Cl)cc3)N=C3NC(NC(=O)c4ccccc4OC)=NN32)cc1 | 5.96 | 5.91 | 5.53 | > 25 µM | 5.19 | > 10 µM | 6.12
36 | CCc1ccc(C(=O)NCCCC2CCCC2O)cc1S(=O)(=O)N1CCOCC1 (stereo unspecified) | < 5.00 | 6.01 | 5.36 | > 25 µM | 5.60 | > 10 µM | 5.72
37 | O=S(=O)(c1ccc(Cl)s1)N1CCC(N2CCc3sccc3C2)CC1 | < 5.00 | 5.25 | 5.95 | – | – | > 10 µM | 5.46
38 | O=C(Nc1ccccc1)Nc1cnc(-n2ccnc2)nc1 | 5.33 | 5.26 | 5.45 | – | – | > 10 µM | 5.58
39 | O=S(=O)(c1ccc(F)c(Cl)c1)N1CC[C@H](Oc2ccncc2Cl)C1 | 5.49 | 5.57 | 5.12 | – | – | > 10 µM | 5.73
40 | COc1cccc(-c2cc(O)cc(CC[C@H]3CCCCN3)c2)n1 | 5.76 | 5.81 | 5.74 | > 25 µM | 5.89 | > 10 µM | 5.91
41 | O=C(CN1CCC[C@H]1C1CCCC1)NCC1CCCCC1 | < 5.00 | 5.78 | 5.52 | > 25 µM | 5.68 | > 10 µM | 5.42
42 | CCc1ccc(C(=O)Nc2cnc(-n3ccnc3)nc2)cc1 | < 5.00 | 5.20 | 5.45 | – | – | > 10 µM | 5.30
43 | Fc1cnc(OC2Cc3ccccc3C2)nc1 | < 5.00 | < 5.00 | 5.49 | – | – | > 10 µM | 5.73
44 | CCc1cc(=O)[nH]c(-n2nc(C3CC3)cc2NC(=O)C2CCCCC2)n1 | < 5.00 | 5.49 | 5.39 | – | – | > 10 µM | 5.90
